# Laboratory results taken from article PMC3306394 (PLoS ONE, 2012).
# Read-outs that look alike come from different tables or passages of the source.
# Experiments:
# HpSK M10A [1] = target: T1, HpSK M10A (Helicobacter pylori, UniProt P56073, M10A); type: biochemical; settings: apparent value
# T1 construct: His6 (own knowledge: pQE30 vector gives an N-terminal MRGS-His6 tag); made in house; host or cells: E. coli
# Description: (§1) SK activity was determined by coupling the release of ADP from the SK-catalyzed reaction to the oxidation of NADH using pyruvate kinase (EC 2.7.1.40) and lactate dehydrogenase (EC 1.1.1.27) as coupling enzymes. […] All assays were conducted in a 96-well microplate and analyzed with a spectrophotometer (FLUOstar OPTIMA, BMG LABTECH). The relative activity of wild-type HpSK was set to 100%.
# [2] = target: T2, wild-type HpSK (Helicobacter pylori shikimate kinase) (Helicobacter pylori, UniProt P56073); settings: wild-type enzyme, cited from earlier work
# T2 construct: His6 (own knowledge: the pQE30 vector gives an N-terminal MRGS-His6 tag); made in house; host or cells: E. coli (printed for the mutants; same procedures as for wild type)
# T2 sequence (P56073 whole entry): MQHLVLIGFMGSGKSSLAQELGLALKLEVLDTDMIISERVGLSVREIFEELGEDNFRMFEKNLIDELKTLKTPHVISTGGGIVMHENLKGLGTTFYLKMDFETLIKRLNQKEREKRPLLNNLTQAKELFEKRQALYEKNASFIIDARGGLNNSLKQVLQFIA
# HpSK F48Y [3] = target: T3, HpSK F48Y (Helicobacter pylori, UniProt P56073, F48Y); type: biochemical
# T3 construct: His6 (own knowledge: pQE30 vector gives an N-terminal MRGS-His6 tag); made in house; host or cells: E. coli
# T3 sequence (P56073 whole entry F48Y): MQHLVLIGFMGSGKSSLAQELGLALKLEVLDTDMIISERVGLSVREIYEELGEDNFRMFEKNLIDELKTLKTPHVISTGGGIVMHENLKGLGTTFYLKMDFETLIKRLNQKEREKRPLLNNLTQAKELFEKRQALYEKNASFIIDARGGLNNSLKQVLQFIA
# Description: as §1, with “enzymes. Shikimate-dependent oxidation of NADH was monitored by a decrease in A340 (ε = 6,200 M^−1 cm^−1).” for “enzymes.”
# HpSK E114A [4] = target: T4, HpSK E114A (Helicobacter pylori, UniProt P56073, E114A); type: biochemical
# T4 construct: His6 (own knowledge: pQE30 vector gives an N-terminal MRGS-His6 tag); made in house; host or cells: E. coli
# T4 sequence (P56073 whole entry E114A): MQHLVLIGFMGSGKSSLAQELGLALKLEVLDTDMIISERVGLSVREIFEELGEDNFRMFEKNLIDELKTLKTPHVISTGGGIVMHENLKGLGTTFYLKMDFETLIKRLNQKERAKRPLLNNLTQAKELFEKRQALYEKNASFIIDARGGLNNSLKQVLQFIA
# Description: as §1, with “enzymes. Shikimate-dependent oxidation of NADH was monitored by a decrease in A340 (ε = 6,200 M^−1 cm^−1).” for “enzymes.”
# HpSK R57A = target: T5, HpSK R57A (Helicobacter pylori, UniProt P56073, R57A); assay: Isothermal titration calorimetry, R57A; type: binding; settings: ITC, 25°C, ND = not detectable
# T5 construct: His6 (own knowledge: pQE30 vector gives an N-terminal MRGS-His6 tag); made in house; host or cells: E. coli
# T5 sequence (P56073 whole entry R57A): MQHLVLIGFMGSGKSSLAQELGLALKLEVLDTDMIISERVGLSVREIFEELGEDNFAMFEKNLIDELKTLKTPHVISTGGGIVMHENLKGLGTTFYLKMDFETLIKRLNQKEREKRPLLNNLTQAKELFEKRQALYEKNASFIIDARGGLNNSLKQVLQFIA
# Description: (§2) Titration experiments were performed by ITC using an iTC200 or VP-ITC instrument (MicroCal, Piscataway, NJ, USA), and a 0.2-ml (iTC200) or 1.4-ml (VP-ITC) sample cell containing the macromolecule solution. All proteins were prepared in a buffer containing 20 mM potassium phosphate, pH 7.3. Prior to the experiment, samples were filtered and degassed under vacuum for 10 min in a Thermo Vac system (Microcal). The sample cell was filled with sample protein solution (15 µM) or the working buffer. Procedures of iTC200 titrations with a ligand (450 µM) were as follows: an initial 1-µl injection (not included in data analysis) followed by 19 injections of 2 µl each, with 2-min intervals between injections. Similar procedures for VP-ITC titrations were also performed: an initial 2-µl injection followed by 24 injections of 10 µl each, with 3-min intervals between injections. The experiments were performed with a constant stirrer speed of 1000 rpm (iTC200) or 290 rpm (VP-ITC) at 25°C. The binding isotherms were fitted to a one-site binding model to obtain the thermodynamic parameters with the initial point discarded. Data analysis was conducted using Origin 7 software.
# HpSK D33A = target: T6, HpSK D33A (Helicobacter pylori, UniProt P56073, D33A); assay: Isothermal titration calorimetry, D33A; type: binding; settings: ITC, 25°C, ND = not detectable
# T6 construct: His6 (own knowledge: pQE30 vector gives an N-terminal MRGS-His6 tag); made in house; host or cells: E. coli
# T6 sequence (P56073 whole entry D33A): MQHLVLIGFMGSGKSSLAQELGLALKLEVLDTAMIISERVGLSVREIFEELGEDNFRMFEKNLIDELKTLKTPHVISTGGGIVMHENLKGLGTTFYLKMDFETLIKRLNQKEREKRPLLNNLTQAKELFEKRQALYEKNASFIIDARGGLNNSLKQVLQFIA
# Description: as §2
# HpSK M10A [5] = target: T1, HpSK M10A; assay: Isothermal titration calorimetry, M10A; type: binding; settings: ITC, 25°C, ND = not detectable
# Description: as §2
# HpSK E114A [6] = target: T4, HpSK E114A; assay: Isothermal titration calorimetry, E114A; type: binding; settings: ITC, 25°C, ND = not detectable
# Description: as §2
# HpSK F48A = target: T7, HpSK F48A (Helicobacter pylori, UniProt P56073, F48A); assay: Isothermal titration calorimetry, F48A; type: binding; settings: ITC, 25°C, ND = not detectable
# T7 construct: His6 (own knowledge: pQE30 vector gives an N-terminal MRGS-His6 tag); made in house; host or cells: E. coli
# T7 sequence (P56073 whole entry F48A): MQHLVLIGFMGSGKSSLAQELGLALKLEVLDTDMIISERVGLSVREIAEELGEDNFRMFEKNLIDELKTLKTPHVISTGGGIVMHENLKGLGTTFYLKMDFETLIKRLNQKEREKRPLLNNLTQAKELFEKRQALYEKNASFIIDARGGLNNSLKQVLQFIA
# Description: as §2
# HpSK R132K = target: T8, HpSK R132K (Helicobacter pylori, UniProt P56073, R132K); assay: Isothermal titration calorimetry, R132K; type: binding; settings: ITC, 25°C, ND = not detectable
# T8 construct: His6 (own knowledge: pQE30 vector gives an N-terminal MRGS-His6 tag); made in house; host or cells: E. coli
# T8 sequence (P56073 whole entry R132K): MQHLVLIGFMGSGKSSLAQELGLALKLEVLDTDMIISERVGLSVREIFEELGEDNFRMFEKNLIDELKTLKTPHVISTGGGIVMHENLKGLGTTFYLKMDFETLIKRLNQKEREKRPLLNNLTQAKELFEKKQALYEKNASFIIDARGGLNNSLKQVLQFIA
# Description: as §2
# HpSK R132A = target: T9, HpSK R132A (Helicobacter pylori, UniProt P56073, R132A); assay: Isothermal titration calorimetry, R132A; type: binding; settings: ITC, 25°C, ND = not detectable
# T9 construct: His6 (own knowledge: pQE30 vector gives an N-terminal MRGS-His6 tag); made in house; host or cells: E. coli
# T9 sequence (P56073 whole entry R132A): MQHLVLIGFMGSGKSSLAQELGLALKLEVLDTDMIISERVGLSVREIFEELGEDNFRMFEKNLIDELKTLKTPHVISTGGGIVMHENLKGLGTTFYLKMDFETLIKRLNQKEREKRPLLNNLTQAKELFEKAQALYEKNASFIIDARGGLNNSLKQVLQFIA
# Description: as §2
# HpSK F48Y [7] = target: T3, HpSK F48Y; assay: Isothermal titration calorimetry, F48Y; type: binding; settings: ITC, 25°C, ND = not detectable
# Description: as §2
# HpSK R116K = target: T10, HpSK R116K (Helicobacter pylori, UniProt P56073, R116K); assay: Isothermal titration calorimetry, R116K; type: binding; settings: ITC, 25°C, ND = not detectable
# T10 construct: His6 (own knowledge: pQE30 vector gives an N-terminal MRGS-His6 tag); made in house; host or cells: E. coli
# T10 sequence (P56073 whole entry R116K): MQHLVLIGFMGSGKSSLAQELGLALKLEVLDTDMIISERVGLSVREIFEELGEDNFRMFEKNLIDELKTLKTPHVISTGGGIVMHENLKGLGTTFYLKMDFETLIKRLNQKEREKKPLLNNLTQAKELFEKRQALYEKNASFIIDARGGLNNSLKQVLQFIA
# Description: as §2
# HpSK D33E = target: T11, HpSK D33E (Helicobacter pylori, UniProt P56073, D33E); assay: Isothermal titration calorimetry, D33E; type: binding; settings: ITC, 25°C, ND = not detectable
# T11 construct: His6 (own knowledge: pQE30 vector gives an N-terminal MRGS-His6 tag); made in house; host or cells: E. coli
# T11 sequence (P56073 whole entry D33E): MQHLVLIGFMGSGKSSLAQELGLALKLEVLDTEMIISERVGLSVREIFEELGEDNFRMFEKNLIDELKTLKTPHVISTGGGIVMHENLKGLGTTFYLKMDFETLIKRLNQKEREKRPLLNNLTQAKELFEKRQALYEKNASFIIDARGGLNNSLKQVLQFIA
# Description: as §2
# wild-type HpSK = target: T12, wild-type HpSK (Helicobacter pylori, UniProt P56073); assay: Isothermal titration calorimetry, wild-type HpSK; type: binding
# T12 construct: His6 (own knowledge: the pQE30 vector gives an N-terminal MRGS-His6 tag); made in house; host or cells: E. coli (printed for the mutants; same procedures as for wild type)
# T12 sequence (P56073 whole entry): as the sequence (P56073 whole entry) above
# Description: as §2
# HpSK R116A = target: T13, HpSK R116A (Helicobacter pylori, UniProt P56073, R116A); assay: Isothermal titration calorimetry, R116A; type: binding; settings: ITC, 25°C, ND = not detectable
# T13 construct: His6 (own knowledge: pQE30 vector gives an N-terminal MRGS-His6 tag); made in house; host or cells: E. coli
# T13 sequence (P56073 whole entry R116A): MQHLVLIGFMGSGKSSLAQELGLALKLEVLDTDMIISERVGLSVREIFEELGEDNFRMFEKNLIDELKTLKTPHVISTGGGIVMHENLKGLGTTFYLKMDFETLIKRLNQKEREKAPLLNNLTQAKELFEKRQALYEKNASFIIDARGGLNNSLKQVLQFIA
# Description: as §2
# HpSK R57K = target: T14, HpSK R57K (Helicobacter pylori, UniProt P56073, R57K); assay: Isothermal titration calorimetry, R57K; type: binding; settings: ITC, 25°C, ND = not detectable
# T14 construct: His6 (own knowledge: pQE30 vector gives an N-terminal MRGS-His6 tag); made in house; host or cells: E. coli
# T14 sequence (P56073 whole entry R57K): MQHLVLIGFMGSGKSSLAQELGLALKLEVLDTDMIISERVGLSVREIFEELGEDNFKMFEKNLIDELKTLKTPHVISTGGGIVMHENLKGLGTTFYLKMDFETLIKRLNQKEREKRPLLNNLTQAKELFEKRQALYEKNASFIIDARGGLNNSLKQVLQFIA
# Description: as §2
# [8] = apparent value, read-out: Km (MgATP)
# [9] = read-out: Km (shikimate), apparent value
# T1 sequence (P56073 whole entry M10A): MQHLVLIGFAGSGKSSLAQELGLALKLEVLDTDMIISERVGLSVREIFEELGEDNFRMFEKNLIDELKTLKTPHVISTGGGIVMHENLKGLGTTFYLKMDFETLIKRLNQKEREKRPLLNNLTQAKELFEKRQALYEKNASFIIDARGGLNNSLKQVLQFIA
smiles,measurement,setting,value
Nc1ncnc2c1ncn2[C@@H]1O[C@H](COP(=O)(O)OP(=O)(O)OP(=O)(O)O)[C@@H](O)[C@H]1O [ATP],V max(MgATP),HpSK M10A [1],26 ± 1 µmol/min/mg
same,Km,HpSK M10A [1]; read-out: Km (MgATP),293 µM
same,V max(MgATP),[2],26 ± 1 µmol/min/mg
same,Km,[2]; read-out: Km (MgATP),101 µM
same,V max(MgATP),HpSK F48Y [3]; apparent value,17 ± 1 µmol/min/mg
same,Km,HpSK F48Y [3]; [8],231 µM
same,V max(MgATP),HpSK E114A [4]; apparent value,26 ± 2 µmol/min/mg
same,Km,HpSK E114A [4]; [8],143 µM
"O=C(O)C1=C[C@@H](O)[C@@H](O)[C@H](O)C1 [shikimate, shikimic acid]",Kd,HpSK R57A,no heat release
same,Kd,HpSK D33A,no heat release
same,Kd,HpSK M10A [5],34000 ± 7000 nM
same,Kd,HpSK E114A [6],330 ± 30 nM
same,Kd,HpSK F48A,lost binding activity
same,Kd,HpSK R132K,no heat release
same,Kd,HpSK R132A,no heat release
same,Kd,HpSK F48Y [7],5200 ± 400 nM
same,Kd,HpSK R116K,no heat release
same,Kd,HpSK D33E,no heat release
same,Kd,wild-type HpSK,320 ± 70 nM
same,Kd,HpSK R116A,no heat release
same,V max(shikimate),HpSK M10A [1],16 ± 1 µmol/min/mg
same,Km,[2]; read-out: Km (shikimate),60 µM
same,V max(shikimate),[2],22 ± 1 µmol/min/mg
same,Kd,HpSK R57K,no heat release
same,V max(shikimate),HpSK F48Y [3]; apparent value,13 ± 2 µmol/min/mg
same,Km,HpSK F48Y [3]; [9],291 µM
same,V max(shikimate),HpSK E114A [4]; apparent value,23 ± 1 µmol/min/mg
same,Km,HpSK E114A [4]; [9],39 µM
